# Source: publication PMC6704710, “Preclinical evaluation of 3D185, a novel potent inhibitor of FGFR1/2/3 and CSF-1R, in FGFR-dependent and macrophage-dominant cancer models” (Journal of Experimental & Clinical Cancer Research : CR, 2019)
# Legend:
# Mer(h) = target: T1, Mer(h) (Homo sapiens, UniProt Q12866); assay: Eurofins kinase panel; type: biochemical; conditions: read-out: Inhibition rate (%)
# T1 construct: purchased Eurofins (KinaseProfiler)
# T1 sequence (Q12866 21-999): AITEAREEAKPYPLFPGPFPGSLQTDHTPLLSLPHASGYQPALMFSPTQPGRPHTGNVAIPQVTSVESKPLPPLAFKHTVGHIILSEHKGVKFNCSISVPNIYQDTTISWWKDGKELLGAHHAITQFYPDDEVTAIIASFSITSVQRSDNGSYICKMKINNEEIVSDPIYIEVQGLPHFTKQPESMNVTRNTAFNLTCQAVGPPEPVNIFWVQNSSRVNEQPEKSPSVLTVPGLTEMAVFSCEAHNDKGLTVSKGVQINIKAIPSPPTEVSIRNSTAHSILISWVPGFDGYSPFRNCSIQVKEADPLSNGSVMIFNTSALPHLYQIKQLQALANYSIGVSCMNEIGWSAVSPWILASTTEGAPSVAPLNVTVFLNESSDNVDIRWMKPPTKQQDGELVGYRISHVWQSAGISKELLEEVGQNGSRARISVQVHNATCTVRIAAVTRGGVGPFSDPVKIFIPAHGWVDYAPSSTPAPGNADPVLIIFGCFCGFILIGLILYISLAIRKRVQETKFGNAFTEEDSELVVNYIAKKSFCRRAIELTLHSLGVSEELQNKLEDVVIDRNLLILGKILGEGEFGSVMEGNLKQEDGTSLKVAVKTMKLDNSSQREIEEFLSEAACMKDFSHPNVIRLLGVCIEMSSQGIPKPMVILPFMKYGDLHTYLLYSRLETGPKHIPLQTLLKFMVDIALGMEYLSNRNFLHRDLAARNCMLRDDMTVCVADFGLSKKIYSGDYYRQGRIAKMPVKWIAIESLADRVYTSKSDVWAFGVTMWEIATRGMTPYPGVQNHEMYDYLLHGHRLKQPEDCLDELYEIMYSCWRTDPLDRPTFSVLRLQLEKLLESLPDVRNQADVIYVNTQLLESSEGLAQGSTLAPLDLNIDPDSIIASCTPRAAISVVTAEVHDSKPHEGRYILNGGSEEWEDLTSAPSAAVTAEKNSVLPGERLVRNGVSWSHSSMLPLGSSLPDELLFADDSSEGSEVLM
# [1] = system: CSF-1-differentiated macrophages induced RT112 cell migration; assay: Tumor cell migration assay (Transwell co-culture); type: cell-based, human; conditions: 25 nM, 24 h
# PhKγ2(h) = target: T2, PhKγ2(h) (Homo sapiens, UniProt P15735); assay: Eurofins kinase panel; type: biochemical; conditions: read-out: Inhibition rate (%)
# T2 construct: purchased Eurofins (KinaseProfiler)
# T2 sequence (P15735 1-406): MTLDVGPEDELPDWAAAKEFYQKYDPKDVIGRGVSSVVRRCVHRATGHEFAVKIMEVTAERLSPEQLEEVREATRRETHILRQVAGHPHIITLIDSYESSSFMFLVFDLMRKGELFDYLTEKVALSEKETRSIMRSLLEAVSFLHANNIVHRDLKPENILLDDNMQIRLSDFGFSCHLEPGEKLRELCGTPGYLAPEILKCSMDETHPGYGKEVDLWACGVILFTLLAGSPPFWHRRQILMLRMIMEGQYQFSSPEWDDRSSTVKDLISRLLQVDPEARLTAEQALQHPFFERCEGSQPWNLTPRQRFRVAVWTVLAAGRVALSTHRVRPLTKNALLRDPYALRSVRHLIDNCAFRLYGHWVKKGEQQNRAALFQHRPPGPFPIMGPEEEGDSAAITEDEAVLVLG
# PKR(h) = target: T3, PKR(h) (Homo sapiens, UniProt P19525); assay: Eurofins kinase panel; type: biochemical; conditions: read-out: Inhibition rate (%)
# T3 construct: purchased Eurofins (KinaseProfiler)
# PBMC (CSF-1) = assay: Macrophage survival (CCK-8); type: cell-based; conditions: Homo sapiens, 168 h, 7 days, mean ± SD
# Experimental: Murine bone marrow and human monocytes were stimulated with CSF-1 for 7 days together with the indicated inhibitor, and cell viability was evaluated by the CCK-8 assay. The IC50 values are shown as the mean ± SD (nM) from two independent tests. B-E, To test the impact of 3D185 on the polarization of CSF-1-induced macrophages, murine bone marrow cells and human monocytes were induced to mature into macrophages with CSF-1 for 7 days and then stimulated with CSF-1, IL-4 and IL-13 for an additional 48 h. The expression of the markers MHC-II (b), CD86 (c), and CD206 (d) on induced murine macrophages and CD206 expression on induced human macrophages (e) were determined by flow cytometry, and the mean fluorescence intensity (MFI) was analyzed with FlowJo. Representative data from two independent experiments. f Murine bone marrow cells (left panel) and human monocytes (right panel) were induced to mature into macrophages with CSF-1 for 7 days and then stimulated with CSF-1, IL-4 and IL-13 and treated with vehicle or the indicated inhibitor for an additional 48 h. Then, all cells were collected to count viable cells by staining with trypan blue
# Murine bone marrow-derived macrophages (BMDMs) and PBMCs were used for cell viability studies. […] Cell viability was measured using the CCK-8 assay. For IL-4/IL-13-induced macrophage survival analysis, viable cells were counted by trypan blue exclusion.
# MST3(h) = target: T4, MST3(h) (Homo sapiens, UniProt Q9Y6E0); assay: Eurofins kinase panel; type: biochemical; conditions: read-out: Inhibition rate (%)
# T4 construct: purchased Eurofins (KinaseProfiler)
# PKCη(h) = target: T5, PKCη(h) (Homo sapiens, UniProt P24723); assay: Eurofins kinase panel; type: biochemical; conditions: read-out: Inhibition rate (%)
# T5 construct: purchased Eurofins (KinaseProfiler)
# cSRC(h) = target: T6, cSRC(h) (Homo sapiens, UniProt P12931); assay: Eurofins kinase panel; type: biochemical; conditions: read-out: Inhibition rate (%)
# T6 construct: purchased Eurofins (KinaseProfiler)
# PAK1(h) = target: T7, PAK1(h) (Homo sapiens, UniProt Q13153); assay: Eurofins kinase panel; type: biochemical; conditions: read-out: Inhibition rate (%)
# T7 construct: purchased Eurofins (KinaseProfiler)
# FGFR3 = target: T8, FGFR3 (Homo sapiens, UniProt P22607); assay: Kinase inhibition assay (ELISA); type: biochemical; conditions: mean ± SD
# T8 construct: purchased Eurofins (Fremont, United States)
# T8 sequence (P22607 23-806): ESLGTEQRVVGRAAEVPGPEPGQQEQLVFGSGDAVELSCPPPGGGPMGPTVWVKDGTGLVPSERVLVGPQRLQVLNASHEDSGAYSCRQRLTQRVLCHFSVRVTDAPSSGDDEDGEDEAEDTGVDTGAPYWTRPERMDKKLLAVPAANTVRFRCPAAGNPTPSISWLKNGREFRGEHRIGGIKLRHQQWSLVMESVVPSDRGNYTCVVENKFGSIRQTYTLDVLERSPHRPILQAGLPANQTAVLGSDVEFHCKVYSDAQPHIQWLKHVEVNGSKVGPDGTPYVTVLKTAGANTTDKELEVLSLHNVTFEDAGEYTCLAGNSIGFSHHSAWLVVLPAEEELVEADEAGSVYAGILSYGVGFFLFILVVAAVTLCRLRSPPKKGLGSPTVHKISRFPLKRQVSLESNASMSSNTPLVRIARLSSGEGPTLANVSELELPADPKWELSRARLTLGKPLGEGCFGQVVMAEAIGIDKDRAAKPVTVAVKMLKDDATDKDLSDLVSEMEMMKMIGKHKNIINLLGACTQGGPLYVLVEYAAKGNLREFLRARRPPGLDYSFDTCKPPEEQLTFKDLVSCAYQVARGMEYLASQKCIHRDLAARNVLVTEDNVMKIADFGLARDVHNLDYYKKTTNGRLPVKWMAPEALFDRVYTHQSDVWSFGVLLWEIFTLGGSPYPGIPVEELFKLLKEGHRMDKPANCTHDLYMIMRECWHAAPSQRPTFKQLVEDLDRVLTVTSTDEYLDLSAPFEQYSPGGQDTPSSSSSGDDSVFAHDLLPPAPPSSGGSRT
# T5 sequence (P24723 whole entry): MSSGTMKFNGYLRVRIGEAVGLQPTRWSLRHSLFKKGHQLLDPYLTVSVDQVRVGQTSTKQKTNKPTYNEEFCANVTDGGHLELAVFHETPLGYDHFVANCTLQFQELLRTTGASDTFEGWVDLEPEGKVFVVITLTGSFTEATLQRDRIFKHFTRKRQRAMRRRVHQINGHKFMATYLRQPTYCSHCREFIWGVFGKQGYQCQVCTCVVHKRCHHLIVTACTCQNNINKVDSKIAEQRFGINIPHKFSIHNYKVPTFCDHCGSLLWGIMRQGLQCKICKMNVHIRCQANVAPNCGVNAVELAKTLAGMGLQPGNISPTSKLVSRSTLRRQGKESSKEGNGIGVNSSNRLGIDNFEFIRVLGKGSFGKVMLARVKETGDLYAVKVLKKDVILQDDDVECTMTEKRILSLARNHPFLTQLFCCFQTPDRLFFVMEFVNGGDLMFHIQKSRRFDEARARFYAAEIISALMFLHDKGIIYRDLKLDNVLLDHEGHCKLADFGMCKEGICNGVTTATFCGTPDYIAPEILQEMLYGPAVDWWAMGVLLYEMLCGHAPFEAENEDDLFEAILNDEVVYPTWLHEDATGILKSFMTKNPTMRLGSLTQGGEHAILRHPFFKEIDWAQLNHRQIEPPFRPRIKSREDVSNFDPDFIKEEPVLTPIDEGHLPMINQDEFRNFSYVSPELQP
# T6 sequence (P12931 whole entry): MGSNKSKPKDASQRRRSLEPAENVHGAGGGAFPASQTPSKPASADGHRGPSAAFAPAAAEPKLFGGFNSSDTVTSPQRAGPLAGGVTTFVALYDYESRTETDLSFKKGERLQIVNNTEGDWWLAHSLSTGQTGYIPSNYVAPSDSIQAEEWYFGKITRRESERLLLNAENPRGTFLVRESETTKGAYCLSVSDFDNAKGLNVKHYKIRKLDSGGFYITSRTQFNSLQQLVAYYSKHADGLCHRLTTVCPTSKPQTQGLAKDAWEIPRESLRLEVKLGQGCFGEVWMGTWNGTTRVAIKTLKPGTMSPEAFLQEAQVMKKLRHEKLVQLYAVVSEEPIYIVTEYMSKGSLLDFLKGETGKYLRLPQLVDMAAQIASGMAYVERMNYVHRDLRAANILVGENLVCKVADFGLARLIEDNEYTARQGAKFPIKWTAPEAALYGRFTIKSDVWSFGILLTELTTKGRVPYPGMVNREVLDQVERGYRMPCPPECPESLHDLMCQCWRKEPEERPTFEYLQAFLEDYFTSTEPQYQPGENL
# T4 sequence (Q9Y6E0 whole entry): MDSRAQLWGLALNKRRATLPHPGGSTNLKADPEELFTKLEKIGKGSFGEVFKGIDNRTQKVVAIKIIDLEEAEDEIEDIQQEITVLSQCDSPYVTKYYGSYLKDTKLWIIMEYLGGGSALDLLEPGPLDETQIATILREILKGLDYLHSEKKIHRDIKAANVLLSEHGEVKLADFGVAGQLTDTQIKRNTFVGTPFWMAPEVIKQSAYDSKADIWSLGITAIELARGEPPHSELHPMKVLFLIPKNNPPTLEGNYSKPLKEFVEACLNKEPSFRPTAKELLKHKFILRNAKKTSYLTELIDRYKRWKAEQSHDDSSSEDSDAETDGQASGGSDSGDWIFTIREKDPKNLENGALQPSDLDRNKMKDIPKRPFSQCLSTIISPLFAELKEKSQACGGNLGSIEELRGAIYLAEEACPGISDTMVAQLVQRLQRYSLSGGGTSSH
# T3 sequence (P19525 whole entry): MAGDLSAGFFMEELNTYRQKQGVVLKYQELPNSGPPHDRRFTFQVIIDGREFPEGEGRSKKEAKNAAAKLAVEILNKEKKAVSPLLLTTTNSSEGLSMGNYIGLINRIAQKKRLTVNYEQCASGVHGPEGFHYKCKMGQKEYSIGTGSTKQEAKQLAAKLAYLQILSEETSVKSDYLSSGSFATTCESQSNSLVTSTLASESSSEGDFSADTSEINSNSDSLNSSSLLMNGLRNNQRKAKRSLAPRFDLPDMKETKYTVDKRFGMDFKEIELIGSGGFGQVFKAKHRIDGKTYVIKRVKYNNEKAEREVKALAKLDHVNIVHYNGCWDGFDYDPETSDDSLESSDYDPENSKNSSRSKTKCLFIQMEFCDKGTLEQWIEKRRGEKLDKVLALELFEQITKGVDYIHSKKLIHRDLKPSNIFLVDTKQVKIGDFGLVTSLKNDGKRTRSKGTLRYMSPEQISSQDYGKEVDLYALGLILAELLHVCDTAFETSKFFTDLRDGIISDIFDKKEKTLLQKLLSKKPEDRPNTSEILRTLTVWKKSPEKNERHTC
# T7 sequence (Q13153 whole entry): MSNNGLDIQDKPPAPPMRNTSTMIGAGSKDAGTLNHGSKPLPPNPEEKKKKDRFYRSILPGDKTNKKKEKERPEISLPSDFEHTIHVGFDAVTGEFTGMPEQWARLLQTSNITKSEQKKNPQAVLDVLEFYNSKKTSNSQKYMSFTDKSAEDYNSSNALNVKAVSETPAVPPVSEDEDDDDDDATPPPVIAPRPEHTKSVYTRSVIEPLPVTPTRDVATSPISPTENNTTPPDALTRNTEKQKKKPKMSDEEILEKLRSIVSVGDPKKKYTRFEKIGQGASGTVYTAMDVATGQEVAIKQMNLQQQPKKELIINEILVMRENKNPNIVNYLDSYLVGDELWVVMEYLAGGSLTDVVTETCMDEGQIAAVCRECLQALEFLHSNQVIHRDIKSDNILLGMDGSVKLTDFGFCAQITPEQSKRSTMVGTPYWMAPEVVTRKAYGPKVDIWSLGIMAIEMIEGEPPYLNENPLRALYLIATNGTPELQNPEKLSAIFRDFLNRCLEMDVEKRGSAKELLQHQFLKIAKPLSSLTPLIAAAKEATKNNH
compound,measurement,setting,value
COc1cc(OC)c(Cl)c(-c2ccc3c(NC(=O)c4ccc(N5CCNC(C)(C)C5)cc4)n[nH]c3n2)c1Cl [3D185],inhibition at 0.01 µM,Mer(h); 10 nM,-9%
same,inhibition at 0.1 µM,Mer(h); 100 nM,-7%
same,inhibition at 1 µM,Mer(h); 1000 nM,32%
same,effect on macrophage-induced RT112 cell migration,[1],blocking most cell migration
same,inhibition at 0.01 µM,PhKγ2(h); 10 nM,12%
same,inhibition at 0.1 µM,PhKγ2(h); 100 nM,-8%
same,inhibition at 1 µM,PhKγ2(h); 1000 nM,-3%
same,inhibition at 0.01 µM,PKR(h); 10 nM,-4%
same,inhibition at 0.1 µM,PKR(h); 100 nM,-3%
same,inhibition at 1 µM,PKR(h); 1000 nM,0%
same,IC50,PBMC (CSF-1),118 nM
same,inhibition at 0.01 µM,MST3(h); 10 nM,-2%
same,inhibition at 0.1 µM,MST3(h); 100 nM,8%
same,inhibition at 1 µM,MST3(h); 1000 nM,70%
same,inhibition at 0.01 µM,PKCη(h); 10 nM,-10%
same,inhibition at 0.1 µM,PKCη(h); 100 nM,-1%
same,inhibition at 1 µM,PKCη(h); 1000 nM,-9%
same,inhibition at 0.01 µM,cSRC(h); 10 nM,26%
same,inhibition at 0.1 µM,cSRC(h); 100 nM,53%
same,inhibition at 1 µM,cSRC(h); 1000 nM,87%
same,inhibition at 0.01 µM,PAK1(h); 10 nM,5%
same,inhibition at 0.1 µM,PAK1(h); 100 nM,6%
same,inhibition at 1 µM,PAK1(h); 1000 nM,2%
same,IC50,FGFR3,3.6 nM
